≈ marks a conversion by molar mass, not a printed value. Read-outs that look alike come from different tables or passages of the source.
Key:
[1] = tested on: HepG2 human liver cancer cell line; test: MTS cytotoxicity assay, liver cells; assay type: cell-based; settings: 96 h, read-out: MTS percentage survival @ 100 µM
Mtb mc^27902 pMV261 [2] = test: microbe, parasite or virus in culture; assay type: cell-based; settings: Mycobacterium tuberculosis
S. aureus NCTC 2981 = test: Non-mycobacterial REMA assay; assay type: cell-based; settings: Staphylococcus aureus, NCTC2981, read-out: Minimum inhibitory concentration 95%
[3] = tested on: AC10 hybrid adult ventricular cardiomyocytes; test: MTS cytotoxicity assay, cardiomyocytes; assay type: cell-based; settings: Homo sapiens, AC10 cardiac, 96 h, read-out: MTS percentage survival @ 100 µM
A. baumannii NCTC 12156 = test: Non-mycobacterial REMA assay; assay type: cell-based; settings: Acinetobacter baumannii, NCTC12156, read-out: Minimum inhibitory concentration 95%
tuberculosis patients = tested on: tuberculosis patients; set-up: method as in PMID 5535617; settings: monotherapy; after an 8-week regimen; cited from earlier work
[4] = tested on: M. bovis BCG containing the pVVdesA3 overexpression plasmid; set-up: method as in PMID 14559907; settings: M. bovis BCG with pVVdesA3 overexpression plasmid; microplate alamar blue assay; cited from earlier work
S. agalactiae NCTC 8181 = test: Non-mycobacterial REMA assay; assay type: cell-based; settings: Streptococcus agalactiae, NCTC8181, read-out: Minimum inhibitory concentration 95%
P. aeruginosa DSM 19880 = test: Non-mycobacterial REMA assay; assay type: cell-based; settings: Pseudomonas aeruginosa, DSM19880, read-out: Minimum inhibitory concentration 95%
S. pyogenes NCTC 8198 = test: Non-mycobacterial REMA assay; assay type: cell-based; settings: Streptococcus pyogenes, NCTC8198, read-out: Minimum inhibitory concentration 95%
B. cereus NCTC 7464 = test: Non-mycobacterial REMA assay; assay type: cell-based; settings: Bacillus cereus, NCTC7464, read-out: Minimum inhibitory concentration 95%
Mtb mc^27902 pMV261 [5] = assay type: cell-based, Mycobacterium tuberculosis
M. bovis BCG = settings: microplate alamar blue assay; cited from earlier work
[6] = tested on: RAW264.7 murine macrophage cells; test: cells; assay type: cell-based
K. pneumoniae NCTC 9633 = test: Non-mycobacterial REMA assay; assay type: cell-based; settings: Klebsiella pneumoniae, NCTC9633, read-out: Minimum inhibitory concentration 95%
E. coli K12 = test: Non-mycobacterial REMA assay; assay type: cell-based; settings: Escherichia coli, read-out: Minimum inhibitory concentration 95%
Method: (§1) Bacterial minimum inhibition concentrations (MIC) were determined using the Resazurin Microtiter Assay (REMA) method according to Palomino et al.[28] Stock solutions of the tested compounds were prepared in sterile dimethyl sulfoxide (DMSO), then diluted in 7H9OPALPen^1Cyc^10(Kan^25) to obtain a final drug concentration range of 32–0.032 μg/mL. A suspension of the test Mycobacterium was cultured in 7H9OPALPen^1Cyc^10(Kan^25) containing 0.05% v/v Tween^80 for one week at 37 °C, 5% CO2. The bacterial suspension was adjusted to 0.5 McFarland and diluted in 7H9OPALPen^1Cyc^10(Kan^25) 1:25. 100 μL of the inoculum was added to each well of a 96-well microplate together with 100 μL of the compound titration. The plate was incubated at 37 °C, 5% CO2. After 5 days, 10.5 μL 0.1% (w/v) sterile resazurin (solubilised in sterile PBS containing 0.02% v/v Tween^80) was added. Reduced resazurin was detected using fluorescence (Ex/Em 530/590 nm) in a FLUOstar Optima, BMG Labtech. All titre measurements were plotted in SigmaPlot™ and 4-parameter logistic (4PL) model regressions conducted. The relative MIC95 of each curve was calculated and averaged (Table 1). Testing was performed in duplicate with two independent biological repeats. […] Though, for these cultures, dilutions were performed at 1:125 prior to inoculation of the plate and incubation for 4 h (Supplementary Table 3). Known antitubercular agents used in this study were rifampicin (RIF), isoniazid (INH), ISO, EMB, ethionamide (ETH), linezolid (LZD), delamanid (DEL) and moxifloxacin (MOX).

S. enterica NCTC 6754 = test: Non-mycobacterial REMA assay; assay type: cell-based; settings: Salmonella enterica, NCTC6754, read-out: Minimum inhibitory concentration 95%
Method: as §1

E. cloacae NCTC 10005 = test: Non-mycobacterial REMA assay; assay type: cell-based; settings: Enterobacter cloacae, NCTC10005, read-out: Minimum inhibitory concentration 95%
Mtb mc^27902 pMV261 [7] = test: EtBr accumulation assay; assay type: cell-based, Mycobacterium tuberculosis; settings: compound at ½ the MIC; absence or presence of glucose; 60 min
E. faecalis NCTC 775 = test: Non-mycobacterial REMA assay; assay type: cell-based; settings: Enterococcus faecalis, NCTC775, read-out: Minimum inhibitory concentration 95%
E. faecium NCTC 7171 = test: Non-mycobacterial REMA assay; assay type: cell-based; settings: Enterococcus faecium, NCTC7171, read-out: Minimum inhibitory concentration 95%

Compound: CC(C)CCOc1ccc(NC(=S)Nc2ccc(OCCC(C)C)cc2)cc1 [ISO, 4,4′-diisoamyloxydiphenylthiourea]
- viability at 100 µM [1]: 95.4 ± 4.3%
- MIC (Mtb mc^27902 pMV261 [2]; mc^27902 pMV261, REMA, read-out: Mtb MIC95): 0.2 µg/mL
- MIC (Mtb mc^27902 pMV261 [2]; values used for the SI, in brackets, […], read-out: MIC95): 0.2 µg/mL
- MIC (Mtb mc^27902 pMV261 [2]; values used for the SI, […], read-out: MIC95): 0.49 µM
- MIC (S. aureus NCTC 2981): > 32 µg/mL
- viability at 100 µM [3]: 38.9 ± 13.9%
- MIC (A. baumannii NCTC 12156): > 32 µg/mL
- patients testing sputum negative (tuberculosis patients): 25%
- MIC [4]: 6.0 µg/mL (≈ 15 µM)
- MIC (S. agalactiae NCTC 8181): > 32 µg/mL
- MIC (P. aeruginosa DSM 19880): > 32 µg/mL
- MIC (S. pyogenes NCTC 8198): > 32 µg/mL
- MIC (B. cereus NCTC 7464): > 32 µg/mL
- TDM and glucose monomycolate levels (TLC) (Mtb mc^27902 pMV261 [5]): decrease in TDM and glucose monomycolate
- effect on mycolic acid biosynthesis (FAMEs/MAMEs, TLC/autoradiography) (Mtb mc^27902 pMV261 [5]): mycolate depletion was observed in both the cell wall-bound and whole cell analysis
- TMM levels (TLC) (Mtb mc^27902 pMV261 [5]; at the highest concentrations, […]): not observed
- MIC (M. bovis BCG): 3.0 µg/mL (≈ 7.49 µM)
- viability at 100 µM ([6]; Mus musculus, RAW264.7, 96 h, RAW264.7 macrophage, 100 µM, 96 h, read-out: MTS percentage survival @ 100 µM): 34.5%
- IC50 ([6]; Mus musculus, RAW264.7 macrophages, 0 to 100 µM, read-out: IC50 (cell viability, MTS assay)): 18.8 µM
- selectivity index (SI) ([6]; from RAW264.7 IC50 and Mtb MIC95): 38
- MIC (K. pneumoniae NCTC 9633): > 32 µg/mL
- MIC (E. coli K12): > 32 µg/mL
- MIC (S. enterica NCTC 6754): > 32 µg/mL
- MIC (E. cloacae NCTC 10005): > 32 µg/mL
- accumulation of EtBr (Mtb mc^27902 pMV261 [7]): increased accumulation of EtBr
- MIC (E. faecalis NCTC 775): > 32 µg/mL
- MIC (E. faecium NCTC 7171): > 32 µg/mL
